In the NIST ThermoML archive (doi:10.1016/j.jct.2016.09.030):
± gives the expanded uncertainty stated by the source. Each block holds one compound with its values, some of them ahead of it.

Tests used:
[1] = refractive index (Na D-line) (dimensionless); xn = mol fraction of the nth substance listed; conditions: 100 kPa, Liquid, Standard Abbe refractometry, x2 = 0
[2] = xn = mol fraction of the nth substance listed; conditions: 100 kPa, Liquid, x2 = 0; for viscosity: Concentric cylinders viscometry; for mass density: Vibrating tube method
[3] = refractive index (Na D-line) (dimensionless); conditions: 100 kPa, Liquid, Standard Abbe refractometry
[4] = 100 kPa, Liquid; for viscosity: Concentric cylinders viscometry; for mass density: Vibrating tube method

Structure (SMILES): CC(C)CO [2-methyl-1-propanol] + CCCCCCCC(=O)OCC
- refractive index ([1]; 288.15 K): 1.3978 ± 0.0028
- refractive index ([1]; 293.15 K): 1.3958 ± 0.0028
- refractive index ([1]; 298.15 K): 1.3937 ± 0.0028
- refractive index ([1]; 303.15 K): 1.3916 ± 0.0028
- refractive index ([1]; 308.15 K): 1.3895 ± 0.0028
- refractive index ([1]; 313.15 K): 1.3874 ± 0.0028
- refractive index ([1]; 318.15 K): 1.3853 ± 0.0028
- refractive index ([1]; 323.15 K): 1.383 ± 0.0028
- viscosity ([2]; 288.15 K): 4.829 ± 0.039 mPa·s
- mass density ([2]; 288.15 K): 805.88 ± 1.6 kg/m3
- viscosity ([2]; 293.15 K): 4.052 ± 0.033 mPa·s
- mass density ([2]; 293.15 K): 802.03 ± 1.6 kg/m3
- viscosity ([2]; 298.15 K): 3.431 ± 0.028 mPa·s
- mass density ([2]; 298.15 K): 798.16 ± 1.6 kg/m3
- viscosity ([2]; 303.15 K): 2.923 ± 0.024 mPa·s
- mass density ([2]; 303.15 K): 794.25 ± 1.6 kg/m3
- viscosity ([2]; 308.15 K): 2.505 ± 0.021 mPa·s
- mass density ([2]; 308.15 K): 790.31 ± 1.6 kg/m3
- viscosity ([2]; 313.15 K): 2.161 ± 0.018 mPa·s
- mass density ([2]; 313.15 K): 786.31 ± 1.6 kg/m3
- viscosity ([2]; 318.15 K): 1.875 ± 0.016 mPa·s
- mass density ([2]; 318.15 K): 782.26 ± 1.6 kg/m3
- viscosity ([2]; 323.15 K): 1.652 ± 0.014 mPa·s
- mass density ([2]; 323.15 K): 778.14 ± 1.6 kg/m3

Structure (SMILES): CC(C)CO [2-methyl-1-propanol] + CCOC(=O)CCC(=O)OCC
- refractive index ([1]; 288.15 K): 1.3978 ± 0.0028
- refractive index ([1]; 293.15 K): 1.3958 ± 0.0028
- refractive index ([1]; 298.15 K): 1.3937 ± 0.0028
- refractive index ([1]; 303.15 K): 1.3916 ± 0.0028
- refractive index ([1]; 308.15 K): 1.3895 ± 0.0028
- refractive index ([1]; 313.15 K): 1.3874 ± 0.0028
- refractive index ([1]; 318.15 K): 1.3853 ± 0.0028
- refractive index ([1]; 323.15 K): 1.383 ± 0.0028
- viscosity ([2]; 288.15 K): 4.829 ± 0.039 mPa·s
- mass density ([2]; 288.15 K): 805.88 ± 1.6 kg/m3
- viscosity ([2]; 293.15 K): 4.052 ± 0.033 mPa·s
- mass density ([2]; 293.15 K): 802.03 ± 1.6 kg/m3
- viscosity ([2]; 298.15 K): 3.431 ± 0.028 mPa·s
- mass density ([2]; 298.15 K): 798.16 ± 1.6 kg/m3
- viscosity ([2]; 303.15 K): 2.923 ± 0.024 mPa·s
- mass density ([2]; 303.15 K): 794.25 ± 1.6 kg/m3
- viscosity ([2]; 308.15 K): 2.505 ± 0.021 mPa·s
- mass density ([2]; 308.15 K): 790.31 ± 1.6 kg/m3
- viscosity ([2]; 313.15 K): 2.161 ± 0.018 mPa·s
- mass density ([2]; 313.15 K): 786.31 ± 1.6 kg/m3
- viscosity ([2]; 318.15 K): 1.875 ± 0.016 mPa·s
- mass density ([2]; 318.15 K): 782.26 ± 1.6 kg/m3
- viscosity ([2]; 323.15 K): 1.652 ± 0.014 mPa·s
- mass density ([2]; 323.15 K): 778.14 ± 1.6 kg/m3

Continued, values first:

- refractive index ([1]; 288.15 K): 1.4087 ± 0.0028
- refractive index ([1]; 293.15 K): 1.4067 ± 0.0028
- refractive index ([1]; 298.15 K): 1.4047 ± 0.0028
- refractive index ([1]; 303.15 K): 1.4026 ± 0.0028
- refractive index ([1]; 308.15 K): 1.4005 ± 0.0028
- refractive index ([1]; 313.15 K): 1.3985 ± 0.0028
- refractive index ([1]; 318.15 K): 1.3964 ± 0.0028
- refractive index ([1]; 323.15 K): 1.3943 ± 0.0028
- viscosity ([2]; 288.15 K): 5.057 ± 0.047 mPa·s
- mass density ([2]; 288.15 K): 812.29 ± 1.6 kg/m3
- viscosity ([2]; 293.15 K): 4.287 ± 0.04 mPa·s
- mass density ([2]; 293.15 K): 808.58 ± 1.6 kg/m3
- viscosity ([2]; 298.15 K): 3.671 ± 0.035 mPa·s
- mass density ([2]; 298.15 K): 804.84 ± 1.6 kg/m3
- viscosity ([2]; 303.15 K): 3.155 ± 0.03 mPa·s
- mass density ([2]; 303.15 K): 801.09 ± 1.6 kg/m3
- viscosity ([2]; 308.15 K): 2.73 ± 0.026 mPa·s
- mass density ([2]; 308.15 K): 797.31 ± 1.6 kg/m3
- viscosity ([2]; 313.15 K): 2.375 ± 0.023 mPa·s
- mass density ([2]; 313.15 K): 793.51 ± 1.6 kg/m3
- viscosity ([2]; 318.15 K): 2.076 ± 0.02 mPa·s
- mass density ([2]; 318.15 K): 789.67 ± 1.6 kg/m3
- viscosity ([2]; 323.15 K): 1.841 ± 0.018 mPa·s
- mass density ([2]; 323.15 K): 785.79 ± 1.6 kg/m3
Structure (SMILES): CC(C)CCO [3-methylbutan-1-ol] + CCCCCCCC(=O)OCC

- refractive index ([1]; 288.15 K): 1.4087 ± 0.0028
- refractive index ([1]; 293.15 K): 1.4067 ± 0.0028
- refractive index ([1]; 298.15 K): 1.4047 ± 0.0028
- refractive index ([1]; 303.15 K): 1.4026 ± 0.0028
- refractive index ([1]; 308.15 K): 1.4005 ± 0.0028
- refractive index ([1]; 313.15 K): 1.3985 ± 0.0028
- refractive index ([1]; 318.15 K): 1.3964 ± 0.0028
- refractive index ([1]; 323.15 K): 1.3943 ± 0.0028
- viscosity ([2]; 288.15 K): 5.057 ± 0.047 mPa·s
- mass density ([2]; 288.15 K): 812.29 ± 1.6 kg/m3
- viscosity ([2]; 293.15 K): 4.287 ± 0.04 mPa·s
- mass density ([2]; 293.15 K): 808.58 ± 1.6 kg/m3
- viscosity ([2]; 298.15 K): 3.671 ± 0.035 mPa·s
- mass density ([2]; 298.15 K): 804.84 ± 1.6 kg/m3
- viscosity ([2]; 303.15 K): 3.155 ± 0.03 mPa·s
- mass density ([2]; 303.15 K): 801.09 ± 1.6 kg/m3
- viscosity ([2]; 308.15 K): 2.73 ± 0.026 mPa·s
- mass density ([2]; 308.15 K): 797.31 ± 1.6 kg/m3
- viscosity ([2]; 313.15 K): 2.375 ± 0.023 mPa·s
- mass density ([2]; 313.15 K): 793.51 ± 1.6 kg/m3
- viscosity ([2]; 318.15 K): 2.076 ± 0.02 mPa·s
- mass density ([2]; 318.15 K): 789.67 ± 1.6 kg/m3
- viscosity ([2]; 323.15 K): 1.841 ± 0.018 mPa·s
- mass density ([2]; 323.15 K): 785.79 ± 1.6 kg/m3
Structure (SMILES): CC(C)CCO [3-methylbutan-1-ol] + CCOC(=O)CCC(=O)OCC

- refractive index ([3]; 288.15 K): 1.4199 ± 0.0028
- refractive index ([3]; 293.15 K): 1.4177 ± 0.0028
- refractive index ([3]; 298.15 K): 1.4155 ± 0.0028
- refractive index ([3]; 303.15 K): 1.4132 ± 0.0028
- refractive index ([3]; 308.15 K): 1.411 ± 0.0028
- refractive index ([3]; 313.15 K): 1.4088 ± 0.0028
- refractive index ([3]; 318.15 K): 1.4066 ± 0.0028
- refractive index ([3]; 323.15 K): 1.4044 ± 0.0028
- viscosity ([4]; 288.15 K): 1.686 ± 0.022 mPa·s
- mass density ([4]; 288.15 K): 870.88 ± 1.7 kg/m3
- viscosity ([4]; 293.15 K): 1.537 ± 0.02 mPa·s
- mass density ([4]; 293.15 K): 866.58 ± 1.7 kg/m3
- viscosity ([4]; 298.15 K): 1.41 ± 0.019 mPa·s
- mass density ([4]; 298.15 K): 862.28 ± 1.7 kg/m3
- viscosity ([4]; 303.15 K): 1.298 ± 0.017 mPa·s
- mass density ([4]; 303.15 K): 857.98 ± 1.7 kg/m3
- viscosity ([4]; 308.15 K): 1.2 ± 0.016 mPa·s
- mass density ([4]; 308.15 K): 853.68 ± 1.7 kg/m3
- viscosity ([4]; 313.15 K): 1.118 ± 0.015 mPa·s
- mass density ([4]; 313.15 K): 849.37 ± 1.7 kg/m3
- viscosity ([4]; 318.15 K): 1.035 ± 0.014 mPa·s
- mass density ([4]; 318.15 K): 845.06 ± 1.7 kg/m3
- viscosity ([4]; 323.15 K): 0.9708 ± 0.013 mPa·s
- mass density ([4]; 323.15 K): 840.74 ± 1.7 kg/m3
Structure (SMILES): CCCCCCCC(=O)OCC [ethyl octanoate]
